Assays:
[1] = Inhibition of recombinant SARS-CoV-2 main protease using ALNDFSNSGSDVLYQPPQTSITSAVLQSGFRKMAFPS-NH2 as substrate preincubated for 15 mins followed by substrate addition and measured after 30 mins by Solid phase extraction coupled with MS analysis; set-up: species or system Severe acute respiratory syndrome coronavirus 2
Vero C1008 = test: Cytotoxicity against African green monkey Vero E6 cells; format: toxicity, cell-based; conditions: chlorocebus sabaeus
SARS-CoV-2 = test: Antiviral activity against SARS-CoV-2 MT007544.1 infected in African green monkey Vero E6 cells pre infected with virus for 1 hrs followed by incubation with cells for 2 hrs and measured after 20 hrs by ELISPOT reader based analysis; format: functional, organism-based; conditions: Severe acute respiratory syndrome coronavirus 2, MT007544.1, Vero C1008
[2] = system: Severe acute respiratory syndrome coronavirus 2; test: Inhibition of recombinant SARS-CoV-2 main protease assessed as Kinact/Ki using ALNDFSNSGSDVLYQPPQTSITSAVLQSGFRKMAFPS-NH2 as substrate preincubated for 15 mins followed by substrate addition and measured after 30 mins by Solid phase extraction coupled with MS analysis; conditions: time 45.0 min

SMILES: COC(=O)N[C@H](C(=O)N1C[Si](C)(C)C[C@H]1C(=O)N[C@H](C#N)C[C@@H]1CCNC1=O)C1CCCCC1
- IC50 [1]: 113 nM

SMILES: COC(=O)N[C@H](C(=O)N1C[Si](C)(C)C[C@H]1C(=O)N[C@H](C#N)C[C@@H]1CCNC1=O)C(C)(C)C
- IC50 [1]: 59 nM
- Activity (Vero C1008): Non-toxic
- EC50 (SARS-CoV-2): > 50000 nM

SMILES: C#C[C@H](C[C@@H]1CCNC1=O)NC(=O)[C@@H]1C[Si](C)(C)CN1C(=O)[C@@H](NC(=O)OC)C(C)(C)C
- IC50 [1]: 340 nM
- EC50 (SARS-CoV-2): > 50000 nM
- K [2]: 3640 M⁻¹ s⁻¹

SMILES: COC(=O)N[C@H](C(=O)N1CC(C)(C)C[C@H]1C(=O)N[C@H](C#N)C[C@@H]1CCNC1=O)C(C)(C)C
- IC50 [1]: 30 nM
- Activity (Vero C1008): Non-toxic
- EC50 (SARS-CoV-2): > 50000 nM

SMILES: CC(C)(C)[C@H](NC(=O)C(F)(F)F)C(=O)N1C[Si](C)(C)C[C@H]1C(=O)N[C@H](C#N)C[C@@H]1CCNC1=O
- IC50 [1]: 41 nM
- Activity (Vero C1008): Non-toxic
- EC50 (SARS-CoV-2): 24000 nM

SMILES: COC(=O)N[C@H](C(=O)N1C[Si](C)(C)C[C@H]1C(=O)N[C@H](C#Cc1ccccc1)C[C@@H]1CCNC1=O)C(C)(C)C
- IC50 [1]: > 50000 nM
- EC50 (SARS-CoV-2): > 50000 nM

SMILES: CC(C)(C)[C@H](NC(=O)C(F)(F)F)C(=O)N1C[C@H]2[C@@H]([C@H]1C(=O)N[C@H](C#N)C[C@@H]1CCNC1=O)C2(C)C [NIRMATRELVIR]
- Activity (Vero C1008): Non-toxic

SMILES: C#C[C@H](C[C@@H]1CCNC1=O)NC(=O)[C@@H]1[C@@H]2[C@H](CN1C(=O)[C@@H](NC(=O)C(F)(F)F)C(C)(C)C)C2(C)C
- K [2]: 597 M⁻¹ s⁻¹

SMILES: C#C[C@H](C[C@@H]1CCNC1=O)NC(=O)[C@@H]1CC(C)(C)CN1C(=O)[C@@H](NC(=O)OC)C(C)(C)C
- IC50 [1]: 320 nM
- EC50 (SARS-CoV-2): > 50000 nM

SMILES: C#C[C@H](C[C@@H]1CCNC1=O)NC(=O)[C@@H]1C[Si](C)(C)CN1C(=O)[C@@H](NC(=O)C(F)(F)F)C(C)(C)C
- IC50 [1]: 280 nM
- EC50 (SARS-CoV-2): 46000 nM

Reference: ChEMBL document CHEMBL6134869, “Silaproline-bearing nirmatrelvir derivatives are potent inhibitors of the SARS-CoV-2 main protease highlighting the value of silicon-derivatives in structure-activity-relationship studies” (Eur J Med Chem, 2025)
